Assay results from patent publication US7989433B2, “Substituted thieno[3,2-D]pyrimidines as melanin concentrating hormone receptor-1 antagonists” (Bristol-Myers Squibb Company, priority 2008, dated 2011).

Columns and labels:
[1] = target: T1, mutated (E4Q, A5T) hMCHR1 receptor (Homo sapiens, UniProt Q99705, A5T/E4Q); experiment: Radioligand binding assay for assessment of MCHR1 activity; settings: competition vs [Phe13,[125I]Tyr19]-MCH, HEK-293 membranes
T1 construct: expressed in transfected cells; host or cells: HEK-293 (stably transfected), membrane preparation
Source text: Compounds of the present invention, namely Compounds IA and IB of the invention, and Compounds a to f (prepared as described in U.S. Patent Publication No. 2007/0093509 A1 published Apr. 26, 2007), were initially characterized in an in vitro binding assay to determine their Ki or ability to antagonize binding of a peptide agonist to the human melanin concentrating hormone receptor (MCHR1).
Radioligand Binding Assay for Assessment of MCHR1 Activity
Membranes from stably transfected HEK-293 cells expressing a mutated (E4Q, A5T) hMCHR1 receptor were prepared by dounce homogenization and differential centrifugation. Binding experiments were carried out with 0.5-1.0 ug of membrane protein incubated in a total of 0.2 ml in 25 mM HEPES (pH 7.4) with 10 mM MgCl2, 2 mM EGTA, and 0.1% BSA (Binding Buffer) for 90 min. For competition binding assays, reactions were carried out in the presence of with 0.06-0.1 nM [Phe^13, [^125I]Tyr^19]-MCH and increasing concentrations of unlabeled test molecules. Reactions were terminated by rapid vacuum filtration over 96 well-GFC Unifilter plates pre-coated with 0.075 ml binding buffer containing 1% BSA, and washed 3 times with 0.4 ml of Phospho-buffered Saline (pH 7.4) containing 0.01% TX-100, Filters were dried, 0.05 ml MicroScint 20 was added to each well and radioactivity was subsequently quantified by scintillation counting on a TOPCOUNT® microplate scintillation counter (Packard). Inhibitory constants were determined by nonlinear least squares analysis using a four parameter logistic equation.

[2] = Rat PK model / eight hour PK study after oral prodrug ester; format: in vivo; settings: Sprague-Dawley; for AUC: blood, 10 mg/kg oral prodrug ester, 8 hr AUC of bio-active substance, no unit in table (b280 micromole*hr); for Kp: brain and plasma, 10 mg/kg oral dose of amino acid ester prodrug (valine or glycine), bio-active substance
Method: The relative ability of the prodrug to enhance exposure (bioavailability) was assessed in an eight hour PK study using cannulated SPRAGUE DAWLEY® (CD, Charles River Breeding Laboratory) rats. The compounds (parent and pro-drug esters) were administered p.o. at 2.0 ml/kg as a suspension in 0.5% methyl cellulose, 0.1% Tween 80 in water at 10 mg/kg p.o. Blood samples were taken at 1, 2, 4 and 8 hr. After determination of parent concentration, an AUC was calculated for the eight hour study.

[3] = target: T2, MCHR (Rattus norvegicus, UniProt P97639); experiment: Assessment of in vivo MCHR activity in young growing rats (four day efficacy model); settings: for Efficacy at 30 mg/kg (weight loss in young growing rats): 30 mg/kg daily p.o. of ester prodrug, four day model; for Weight Reduction versus Vehicle: young growing rats
T2 construct: from tissue; host or cells: whole animal: male Sprague Dawley / Charles River rats
Method: Male SPRAGUE DAWLEY® (CD, Charles River Breeding Laboratory) rats weighing approximately 240 grams were place in individual plastic cages with ALPHADRI® bedding. The room was maintained at 72° F. and 50% humidity, and a 12/12 light dark cycle with lights out at 1600 hours. The rats were conditioned for 5 days prior to the start of the study to having a choice of foods. A normal chow (HARLAN TEKLAD®, 2018) that contains 18% protein, 5% fat and 73% carbohydrate and a high fat high sugar diet (Research Diets (D2327)) that contains 20% protein, 40% fat and 40% carbohydrate where the carbohydrate is entirely sucrose and the fat is soybean and coconut oil. […] Body weight and consumption of both kinds of food as well as water intake were measured daily. Water was available ad lib throughout the study. Food consumption is presented as daily caloric consumption which is the sum of grams of chow multiplied by the Kcal per gram (3.5) plus grams of high fat high sugar multiplied by Kcal per gram (4.59).
Baseline body weight was measured prior to drug treatment on day 0 of the study. Baseline food consumption was the average of the 3 days prior to the first drug treatment. […] All data were evaluated using ANOVA and Fishers PLSD statistics.

[4] = One month rat study, formation of biliary lesions; format: in vivo; settings: for biliary lesion formation in rats: doses up to 300 mg/kg for a month; for Formation of Biliary Lesions: rats
Source text: Further investigation established that the toxic agent was a metabolite arising from in vivo oxidative hydroxylation of the alkyl chain containing the tertiary carbinol moiety of compound f.

[5] = system: hepatocytes; experiment: Hepatocyte clearance, human; format: in vitro ADME
Source text: As a consequence the projected human half-life for these two compounds was predicted to be 20 to 40 hr.

[6] = Full PK study in dog (half-life); settings: in vivo
[7] = system: cytochrome P450 enzymes (rat microsomal); experiment: Metabolic stability versus rat microsomal oxidative degradation; settings: rat microsomal oxidative degradation mediated by cytochrome P450
[8] = target: T2, MCHR; experiment: Assessment of MCHR in vivo activity in mature obese rats; settings: dosed as prodrug
Method: Male rats, obtained from Charles River Laboratories weighing 250-300 g, were singly housed in plastic cages on a 12 hour light, 12 hour dark cycle with lights out at 1 pm. The animal room was maintained at 72 degrees F. and 50% humidity. The rats were made obese by giving them simultaneous access to two different diets, HARLAN TEKLAD® rat chow (standard chow) and Research Diets D12327 (a high fat, high carbohydrate, highly palatable diet). The Research Diets chow is comprised of 40% vegetable fat, 40% carbohydrate (sucrose) and 20% protein. The Harlan diet is comprised of 5% fat (soybean oil), 67% carbohydrate (starch) and 22% protein. The normal Harlan rat diet used contains 3.4 kcal/gram of diet, and Research Diet #12327 contains 4.59 kcal/gram. The rats were on the choice diet regime for 10 weeks in order to induce obesity. Once started on the choice diet regime the rats are maintained on it for the duration of the study. Baseline feeding and body weight were collected and used to sort animals into treatment groups. Mean rat weight at the start of the choice diet was 250 grams. The mean weight of the rats at the start of chronic dosing was 661.7±6.3 (mean±sem) grams.
Rats were dosed orally one hour before the start of the dark cycle. Body weight and food consumption were measured daily at the time of dosing. Food consumption was converted to Kcal consumed. Total Kcal consumed was determined by adding the Kcal consumed for each diet and this was determined by multiplying grams of each diet consumed times the Kcal/gram. […]

[9] = system: hepatocytes; experiment: Hepatocyte clearance, dog; format: in vitro ADME
[10] = 3 mg/kg p.o. daily day 0-4, dosed as prodrug
[11] = 10 mg/kg p.o. daily day 0-4, dosed as prodrug
[12] = 30 mg/kg p.o. daily day 0-4, dosed as prodrug

T2 sequence (P97639 whole entry): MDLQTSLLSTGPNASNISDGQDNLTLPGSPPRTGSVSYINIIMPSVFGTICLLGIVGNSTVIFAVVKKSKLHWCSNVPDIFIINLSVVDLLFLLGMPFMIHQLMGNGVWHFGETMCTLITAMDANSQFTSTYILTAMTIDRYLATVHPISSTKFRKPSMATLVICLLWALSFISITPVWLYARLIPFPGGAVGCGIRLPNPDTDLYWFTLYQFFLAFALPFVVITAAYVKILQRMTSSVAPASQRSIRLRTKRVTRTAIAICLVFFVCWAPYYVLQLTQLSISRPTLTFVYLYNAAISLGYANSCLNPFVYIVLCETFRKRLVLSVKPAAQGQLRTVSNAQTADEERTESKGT
T1 sequence (Q99705 whole entry E4Q/A5T): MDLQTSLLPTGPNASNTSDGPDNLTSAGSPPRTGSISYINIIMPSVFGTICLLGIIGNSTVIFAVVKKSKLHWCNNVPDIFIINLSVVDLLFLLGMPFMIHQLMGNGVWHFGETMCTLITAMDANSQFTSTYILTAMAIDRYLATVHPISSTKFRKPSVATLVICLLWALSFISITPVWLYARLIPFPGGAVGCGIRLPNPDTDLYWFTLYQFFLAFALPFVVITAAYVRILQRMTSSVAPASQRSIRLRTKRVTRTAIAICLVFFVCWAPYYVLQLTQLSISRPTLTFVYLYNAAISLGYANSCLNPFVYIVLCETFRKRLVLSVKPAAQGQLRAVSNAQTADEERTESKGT

Molecule	Ki [1] [nM]	AUC [2] [µM·h]	Kp [2]	Efficacy at 30 mg/kg (weight loss in young growing rats) [3] [%]	Formation of Biliary Lesions [4]	hepatocyte clearance [5]	half-life ([6]; Dog Half-life (hr)) [h]	Rat Microsomal Stability [7] [%]	other results
COc1cc(-n2cnc3cc(-c4ccc(Cl)cc4)sc3c2=O)ccc1OC[C@H](OC(=O)CN)C1CC1.Cl [Example 5, (R)-2-(4-(6-(4-Chlorophenyl)-4-oxothieno[3,2-d]pyrimidin-3(4H)-yl)-2-methoxy-phenoxy)-1-cyclopropylethyl 2-aminoacetate, hydrochloride salt]									melting point: 218 to 220 °C
COc1cc(-n2cnc3cc(-c4ccc(Cl)cc4)sc3c2=O)ccc1OC[C@H](O)C1CC1 [IA, (R)-6-(4-Chlorophenyl)-3-(4-(2-cyclopropyl-2-hydroxyethoxy)-3-methoxyphenyl)-thieno[3,2-d]pyrimidin-4(3H)-one]	10	24.5	0.9	6.4	No	approximated that of dog	< 20	92	biliary lesion formation in rats [4]: neither compound IA nor compound IB induced biliary lesion formation
COc1cc(-n2cnc3cc(-c4ccc(Cl)cc4)sc3c2=O)ccc1OCC1(O)CC(F)(F)C1 [IB, 6-(4-Chlorophenyl)-3-(4-((3,3-difluoro-1-hydroxycyclobutyl)methoxy)-3-methoxyphenyl)thieno[3,2-d]pyrimidin-4(3H)-one]	18	38	2.5	7.9	No	approximated that of dog	< 20	95	Weight Reduction versus Vehicle ([3]; 1 mg/kg p.o. daily day 0-4, dosed as prodrug): 2.9%; Weight Reduction versus Vehicle [3, 10]: 4.5%; Weight Reduction versus Vehicle [3, 11]: 6.4%; Weight Reduction versus Vehicle [3, 12]: 7.9%; Weight Reduction versus Vehicle ([8]; 0.03 mg/kg oral chronic dosing): 1.7%; Weight Reduction versus Vehicle ([8]; 0.1 mg/kg oral chronic dosing): 3.2%; Weight Reduction versus Vehicle ([8]; 0.3 mg/kg oral chronic dosing): 5.0%; Weight Reduction versus Vehicle ([8]; 1 mg/kg oral chronic dosing): 6.6%; Weight Reduction versus Vehicle ([8]; 3 mg/kg oral chronic dosing): 7.8%; biliary lesion formation in rats [4]: neither compound IA nor compound IB induced biliary lesion formation; half-life [6]: 16 h
COc1cc(-n2cnc3cc(-c4ccc(Cl)cc4)sc3c2=O)ccc1OCC1(O)CCC1 [a]								20	
COc1cc(-n2cnc3cc(-c4ccc(Cl)cc4)sc3c2=O)ccc1OCC1(O)COC1 [b]				0	Yes			40	
CCC(O)COc1ccc(-n2cnc3cc(-c4ccc(Cl)cc4)sc3c2=O)cc1OC (stereo not drawn) [c]	12	14.5	3.2	4.1	No			60	
COc1cc(-n2cnc3cc(-c4ccc(Cl)cc4)sc3c2=O)ccc1OCC(O)CC(F)(F)F (stereo not drawn) [d]	11	20	1.1	3.2	No			100	
CCS(=O)(=O)CC(O)COc1ccc(-n2cnc3cc(-c4ccc(Cl)cc4)sc3c2=O)cc1OC (stereo not drawn) [e]	8	46	0.09	4.5	No			100	
COc1cc(-n2cnc3cc(-c4ccc(Cl)cc4)sc3c2=O)ccc1OCC(C)(C)O [f]	12	45	2	8.2	Yes	very slow	> 200	98	biliary lesions in rats ([4]; 30 mg/kg for a month): developed obstructive hepatic biliary lesions; hepatocyte clearance [9]: very slow
(R)-6-(4-Chlorophenyl)-3-(4-(2-cyclopropyl -2-hydroxyethoxy)-3-methoxyphenyl)-thieno[3,2-d]pyrimidin-4(3H)-one [IA]									Weight Reduction versus Vehicle [3, 10]: 2.6%; Weight Reduction versus Vehicle [3, 11]: 3.5%; Weight Reduction versus Vehicle [3, 12]: 6.4%; Weight Reduction versus Vehicle ([8]; 0.3 mg/kg oral chronic dosing): 2.09%; Weight Reduction versus Vehicle ([8]; 1 mg/kg oral chronic dosing): 3.90%; Weight Reduction versus Vehicle ([8]; 3 mg/kg oral chronic dosing): 3.57%; Weight Reduction versus Vehicle ([8]; 10 mg/kg oral chronic dosing): 8.42%; Weight Reduction versus Vehicle ([8]; 30 mg/kg oral chronic dosing): 10.16%
